Results: ChEMBL document CHEMBL1201862, “PubChem BioAssay data set” (2004)
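96-well plates; 48 h exposure; 5 concentrations. Endpoints by linear interpolation between flanking doses. Not reached: highest tested concentration assigned. The concentration for 50% growth inhibition is given as GI50.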 Activity calls are given as the source filed them. Cut-off read from the data, not from the text of the source: active = GI50 up to about 1.1 µM and inactive = higher. Square brackets hold non-standard residues; d marks the D form. Residues, ends and D or L forms follow the SMILES beside them. Peptide text beside a SMILES is read from it. *: point of attachment. Boc = CC(C)(C)OC(=O)*

How the values were obtained:
Assay in all cases: NCI anticancer screen, dose series, 48 h
ACHN = tested on: ACHN
HCT-15 = tested on: HCT-15
MDA-MB-231 = tested on: MDA-MB-231
SN12C = tested on: SN12C
OVCAR-5 = tested on: OVCAR-5
A549 = tested on: A549
K562 = tested on: K562
SK-MEL-2 = tested on: SK-MEL-2
Malme-3M = tested on: Malme-3M
HOP-92 = tested on: HOP-92
NCI-H522 = tested on: NCI-H522
CCRF-CEM = tested on: CCRF-CEM
786-0 = tested on: 786-0
SF-295 = tested on: SF-295
COLO 205 = tested on: COLO 205
UACC-62 = tested on: UACC-62
SNB-75 = tested on: SNB-75
SK-MEL-5 = tested on: SK-MEL-5
IGROV-1 = tested on: IGROV-1
A498 = tested on: A498

Structure (SMILES)	GI50 (ACHN)	GI50 (HCT-15)	GI50 (MDA-MB-231)	GI50 (SN12C)	GI50 (OVCAR-5)	GI50 (A549)	GI50 (K562)	GI50 (SK-MEL-2)	GI50 (Malme-3M)	GI50 (HOP-92)	GI50 (NCI-H522)	GI50 (CCRF-CEM)	GI50 (786-0)	GI50 (SF-295)	GI50 (COLO 205)	GI50 (UACC-62)	GI50 (SNB-75)	GI50 (SK-MEL-5)	GI50 (IGROV-1)	GI50 (A498)
COc1cc(Nc2nc3c(N)cc(C(F)(F)F)cc3nc2-c2ccccc2)cc(OC)c1OC	42.9 µM (inactive)	> 94.6 µM	> 42.5 µM (inactive)	43 µM (inactive)	> 100 µM (inactive)	49.5 µM (inactive)	> 100 µM (inactive)	51.4 µM (inactive)	41.1 µM (inactive)	1.39 µM (inactive)	28.4 µM (inactive)	> 100 µM (inactive)	24.3 µM (inactive)	16.6 µM (inactive)	99.3 µM (inactive)	43.1 µM (inactive)	17 µM (inactive)	19.1 µM (inactive)	55.3 µM (inactive)	
C=CCOC1=C(OC(C)=O)C(=O)OC1C1COC(C)(C)O1 (stereo not drawn)	21.6 µM (inactive)	19.5 µM	38.4 µM (inactive)	> 42.8 µM (inactive)	60 µM (inactive)	> 73.5 µM (inactive)	23.6 µM (inactive)	> 52.6 µM (inactive)	21.8 µM (inactive)		17.5 µM (inactive)	21.4 µM (inactive)	32.1 µM (inactive)	79.1 µM (inactive)	29.6 µM (inactive)	57 µM (inactive)	> 36.3 µM (inactive)	44.6 µM (inactive)	37.9 µM (inactive)	> 89.5 µM (inactive)
c1ccc(-c2ccc(/N=N/N3CCCC3)cc2)cc1	> 100 µM (inactive)	> 100 µM	> 100 µM (inactive)	> 100 µM (inactive)	> 100 µM (inactive)		> 100 µM (inactive)	> 100 µM (inactive)		> 100 µM (inactive)	> 100 µM (inactive)	> 100 µM (inactive)	> 100 µM (inactive)	> 100 µM (inactive)	> 100 µM (inactive)	> 100 µM (inactive)	> 100 µM (inactive)	> 100 µM (inactive)	> 100 µM (inactive)	> 100 µM (inactive)
COC(=O)/C=C/c1cnc2c(c1)oc(=O)n2C	> 100 µM (inactive)	> 100 µM	> 100 µM (inactive)	> 100 µM (inactive)	> 100 µM (inactive)	> 100 µM (inactive)	> 100 µM (inactive)	> 100 µM (inactive)	> 100 µM (inactive)	> 100 µM (inactive)		> 100 µM (inactive)	> 100 µM (inactive)	> 100 µM (inactive)	> 100 µM (inactive)	> 100 µM (inactive)	> 100 µM (inactive)	> 100 µM (inactive)	> 100 µM (inactive)	> 100 µM (inactive)
COc1ccc(CCCNC(=O)Cc2ccccc2CO)cc1OC	> 100 µM (inactive)	> 100 µM	> 100 µM (inactive)	> 100 µM (inactive)	> 100 µM (inactive)	> 100 µM (inactive)	> 100 µM (inactive)	> 100 µM (inactive)	> 100 µM (inactive)	> 100 µM (inactive)		> 100 µM (inactive)	> 100 µM (inactive)		> 100 µM (inactive)	> 100 µM (inactive)	> 100 µM (inactive)	> 100 µM (inactive)	> 100 µM (inactive)	> 100 µM (inactive)
Cc1cc(O)c(C(O)c2ccccn2)cc1O (stereo not drawn)	6.01 µM (inactive)	18.2 µM	17.5 µM (inactive)	18.7 µM (inactive)	17.2 µM (inactive)	81.1 µM (inactive)	3.77 µM (inactive)		20.7 µM (inactive)		3.78 µM (inactive)	3.21 µM (inactive)	19.1 µM (inactive)	> 100 µM (inactive)	10 µM (inactive)	14.5 µM (inactive)	14.7 µM (inactive)	23.2 µM (inactive)	35.8 µM (inactive)	
NNC(=O)CC(=O)Nc1ccc(C(=O)O)cc1	> 100 µM (inactive)	> 100 µM	> 100 µM (inactive)	> 100 µM (inactive)	> 100 µM (inactive)	> 100 µM (inactive)	> 100 µM (inactive)	> 100 µM (inactive)	> 100 µM (inactive)	> 100 µM (inactive)	> 100 µM (inactive)	> 100 µM (inactive)	> 100 µM (inactive)	> 100 µM (inactive)	> 100 µM (inactive)	> 100 µM (inactive)	> 100 µM (inactive)	> 100 µM (inactive)	> 100 µM (inactive)	
O=C1Nc2cccc(C(F)(F)F)c2/C1=N/Nc1ccccc1[N+](=O)[O-]	16.1 µM (inactive)	34.4 µM	28.4 µM (inactive)	23.4 µM (inactive)	86.5 µM (inactive)	48 µM (inactive)	17 µM (inactive)	> 100 µM (inactive)			22.4 µM (inactive)	40.6 µM (inactive)	15.5 µM (inactive)	16.4 µM (inactive)	29.4 µM (inactive)	51.3 µM (inactive)	25.6 µM (inactive)	21.4 µM (inactive)	0.404 µM (active)	0.836 µM (active)
O=C(CN1C(=O)c2ccccc2C1=O)OCC1CCCN2CCCCC12 (stereo not drawn)	> 100 µM (inactive)	> 100 µM	> 100 µM (inactive)	> 100 µM (inactive)		> 100 µM (inactive)	> 100 µM (inactive)	> 100 µM (inactive)	> 100 µM (inactive)	> 100 µM (inactive)		> 100 µM (inactive)	> 100 µM (inactive)	> 100 µM (inactive)	99.5 µM (inactive)	> 100 µM (inactive)	> 100 µM (inactive)	> 100 µM (inactive)		> 100 µM (inactive)
Cc1cc(NS(=O)(=O)c2ccc(NC(=O)c3cccc4c(NNc5ccc(S(N)(=O)=O)cc5)c5ccccc5nc34)cc2)no1	39 µM (inactive)	95.1 µM	54.5 µM (inactive)	49.9 µM (inactive)	39.6 µM (inactive)	> 100 µM (inactive)	33.4 µM (inactive)	24 µM (inactive)	45.9 µM (inactive)	22.7 µM (inactive)	25 µM (inactive)	27.9 µM (inactive)	54.6 µM (inactive)	44.4 µM (inactive)	45.1 µM (inactive)	43.4 µM (inactive)	31.7 µM (inactive)	39.5 µM (inactive)	47.3 µM (inactive)	
CC(=O)/N=C1/N(/C=C2\C(=O)Oc3ccccc3C2=O)C(=O)/C(=C/c2ccccc2Cl)N1C	> 100 µM (inactive)	52.6 µM	> 100 µM (inactive)	> 100 µM (inactive)	> 100 µM (inactive)	> 100 µM (inactive)	> 100 µM (inactive)	> 100 µM (inactive)	> 100 µM (inactive)		> 100 µM (inactive)	> 100 µM (inactive)	> 100 µM (inactive)	> 100 µM (inactive)	> 100 µM (inactive)	> 100 µM (inactive)	22.2 µM (inactive)	48 µM (inactive)	> 100 µM (inactive)	0.564 µM (active)
Cc1cccc(CC(Cc2c(C)cccc2C(=O)O)C(=O)O)c1 (stereo not drawn)	> 100 µM (inactive)	31.3 µM	> 100 µM (inactive)	> 100 µM (inactive)	> 100 µM (inactive)	> 100 µM (inactive)	> 100 µM (inactive)	58.7 µM (inactive)	> 100 µM (inactive)		> 100 µM (inactive)	> 100 µM (inactive)	> 100 µM (inactive)	> 100 µM (inactive)	> 100 µM (inactive)	0.0875 µM (active)	> 100 µM (inactive)	4.49 µM (inactive)	> 100 µM (inactive)	> 100 µM (inactive)
C1CCC(CC2CCC(NC3=NCCO3)CC2)CC1 (stereo not drawn)	19.5 µM (inactive)	12.3 µM	19.4 µM (inactive)	19.8 µM (inactive)	23.6 µM (inactive)	32.8 µM (inactive)	14 µM (inactive)	18.4 µM (inactive)	15.8 µM (inactive)		22.2 µM (inactive)	26.1 µM (inactive)	15.2 µM (inactive)	19.7 µM (inactive)	14.2 µM (inactive)	17.3 µM (inactive)	18.2 µM (inactive)	19.5 µM (inactive)	19.7 µM (inactive)	26 µM (inactive)
COC(=O)C(Cc1c[nH]c2ccccc12)NC(=O)C(Cc1c[nH]c2ccccc12)NC(=O)C(Cc1c[nH]c2ccccc12)NC(=O)C(Cc1c[nH]c2ccccc12)NC(=O)OC(C)(C)C (stereo not drawn) (Boc-WWWW-OMe; configuration not given here)	57.5 µM (inactive)	> 100 µM	> 100 µM (inactive)	> 100 µM (inactive)	> 100 µM (inactive)	39.4 µM (inactive)	4.8 µM (inactive)		69.8 µM (inactive)		25.4 µM (inactive)	3.78 µM (inactive)	5.14 µM (inactive)			15.6 µM (inactive)	25.5 µM (inactive)	34.5 µM (inactive)	35.3 µM (inactive)	
N=C(N)NCCC[C@H]1NC(=O)[C@@H](CCC(=O)O)NC(=O)[C@@H](CC(=O)O)NC(=O)[C@@H](CCC(=O)O)NC(=O)[C@H](Cc2c[nH]c3ccccc23)NC1=O (cyclo(W[dE][dD][dE][dR]))	> 7.5 µM (inactive)	> 7.5 µM	> 7.5 µM (inactive)	> 7.5 µM (inactive)	> 7.5 µM (inactive)	> 7.5 µM (inactive)	> 7.5 µM (inactive)	0.191 µM (active)		> 7.5 µM (inactive)	> 7.5 µM (inactive)	> 7.5 µM (inactive)	> 7.5 µM (inactive)	> 7.5 µM (inactive)	> 7.5 µM (inactive)	> 7.5 µM (inactive)		> 7.5 µM (inactive)	> 7.5 µM (inactive)	> 7.5 µM (inactive)
